72 compounds from ChEMBL document CHEMBL3507680, “University of Dundee, Gates Library screen for HepG2 cell viability” can be followed below.

Structures are written as SMILES.

This series is described as follows: Human HepG2 cell viability assay in 384 well format. In kind it is toxicity, cell-based. Set-up: dose 125 nL, time 70.5 hour; concentration not given beside the values. The following applies: HepG2 cells, read-out: Inhibition.
Turning to `CSCC(C)(O)CNC(=O)c1cc(F)ccc1Br` (configuration not stated), the cytotoxicity at 70.5 h is 1.71%.

For `Cc1cc(N(C)C)nc(N2CC(n3cccn3)C2)n1`, the cytotoxicity at 70.5 h turned out to be 5.13%. As to `CCCn1ccnc1-c1cccc(NC(=O)C2CCCOC2)c1` (configuration not stated), the cytotoxicity at 70.5 h is -5.58%. `Cc1ccc(NC(=O)CN2CCC(OCC3CCCO3)CC2)c(C)c1` (configuration not stated): the cytotoxicity at 70.5 h stood at 5.15%. Under `CC(C)(O)CCc1ccc(C(=O)NCC2CCCOC2)cc1` (configuration not stated) stands -2.37%; under `Cc1cc(C)cc(C(=O)Nc2cn[nH]c2)c1`, -8.68%; under `Cn1cc(CNC2CC3(CCN(CC4CC4)CC3)c3ccccc32)cn1` (configuration not stated), -2.11%. Take `Clc1cc(N2CCN(C3CCOCC3)CC2)nc2[nH]ccc12`: the cytotoxicity at 70.5 h was -0.399%.

Regarding `COc1ccc(OC)c(C(O)CNC(=O)Nc2cccnc2OC)c1` (configuration not stated), the cytotoxicity at 70.5 h was -6.93%. Under `O=C(O)c1csc(S(=O)(=O)N2CCCc3ccc(F)cc32)c1` stands -0.904%. In the case of `Cc1cc(F)ccc1C(=O)N1C[C@@H]2COC[C@]2(CN(C)C)C1`, the cytotoxicity at 70.5 h is -14.9%.

With `Cc1cnn(CC2CN(CCc3ccccn3)CCO2)c1` (configuration not stated), the cytotoxicity at 70.5 h was -7.7%.

As for `Cc1cc(=O)[nH]c(-n2nc(-c3ccccc3)cc2N)n1`, the cytotoxicity at 70.5 h was determined as 12.5%. `Cc1oc(C(C)C)cc1C(=O)N1C[C@H]2CC[C@@H]1CN(C(=O)N(C)C)C2`: the cytotoxicity at 70.5 h stood at 3.52%. For the compound `O=C(NCc1cccc(F)c1)NC1CCCN(c2ncccn2)C1` (configuration not stated), the cytotoxicity at 70.5 h was -9.75%. For the compound `CC(C)Cn1cncc1CNC(=O)c1cccc(Cn2cccn2)c1`, the cytotoxicity at 70.5 h is -5.12%. Consider `CC(=O)N1CCC2(CCN(C(=O)c3ccc(C)c(C(F)(F)F)c3)CC2)C1`, for which the cytotoxicity at 70.5 h turned out to be 37.6%.

Turning to `CC(=O)NCc1ccc(C(=O)NC2CCc3nc(C)cn3C2)o1` (configuration not stated), the cytotoxicity at 70.5 h is -3.32%. Turning to `NC(=O)c1cccc2nc([C@H]3CCN(Cc4ccccn4)C3)[nH]c12`, the cytotoxicity at 70.5 h was -0.598%. On to `CC(=O)c1cn(CC(=O)NC(C(=O)O)C(C)C)c2ccccc12` (configuration not stated), for which the cytotoxicity at 70.5 h came out at 0.278%. The value for `O=C(CCc1nccs1)N1CCN(c2ncccn2)CC1` was -1.61%. On to `O=C(Cc1cccs1)NCc1ccnc(C2CCCOC2)n1` (configuration not stated), for which the cytotoxicity at 70.5 h worked out at 3.29%. Under `CN(C)C(C(=O)N1CCN(C(=O)c2ccc[nH]2)CC1)c1ccc(F)cc1` (configuration not stated) stands 9.68%; under `CN(C)S(=O)(=O)N1CC[C@]2(C[C@@H](Oc3cccnc3)CO2)C1`, -5.96%; under `COC(=O)c1cccc(CN(C)Cc2ncnn2C)c1C#N`, 28.8%.

As to `O=C(CN1CCOc2ccc(Cl)cc21)NCc1ncc[nH]1`, the cytotoxicity at 70.5 h was -2.35%. Consider `CCOCC(=O)N1CCC(Cc2nnc(SC)n2C)CC1`, for which the cytotoxicity at 70.5 h is -3.88%. For the compound `CCOCC1c2c(ncn2C)CCN1C(=O)c1ccoc1` (configuration not stated), the cytotoxicity at 70.5 h is -17.6%. `CCC(C)c1noc(C2CCN(C(=O)c3cccnc3)CC2)n1` (configuration not stated): the cytotoxicity at 70.5 h is -12.8%. Turning to `Cc1nn(C)c(C)c1C1CCCN1C(=O)c1ccc(C(N)=O)cn1` (configuration not stated), the cytotoxicity at 70.5 h turned out to be 4.05%. Turning to `CC(C)N(Cc1ccc(C(=O)O)o1)C(C)C`, the cytotoxicity at 70.5 h was -7.28%. Take `COCCC(=O)N1CCC2(CC1)CC(c1ccccc1)CN(C)C2` (configuration not stated): the cytotoxicity at 70.5 h is -5.14%.

For `COc1cc(NC(=O)Cn2ccc3sc(C)cc3c2=O)cc(OC)c1`, the cytotoxicity at 70.5 h was -22%.

For the compound `Cc1ccoc1C(=O)N1CCO[C@H]2[C@H](OCCN(C)C)CC[C@@H]21`, the cytotoxicity at 70.5 h is -12.4%. Take `CCc1c(C(=O)N2CCC3(CC(=O)NC3=O)C2)csc1C` (configuration not stated): the cytotoxicity at 70.5 h is -5.51%.

As to `COc1cccc2c1OCC(NC(=O)NCCc1ccccn1)C2` (configuration not stated), the cytotoxicity at 70.5 h was -9.54%. In the case of `COc1ccc(C(N)c2cccc(S(C)(=O)=O)c2)cc1` (configuration not stated), the cytotoxicity at 70.5 h is -1.22%. `Cc1ccc(C(=O)N2Cc3c(CN(C)C)nn(C)c3C2)cc1C`: the cytotoxicity at 70.5 h worked out at 4.85%.

`CCSCC(C)NCc1nc(-c2cccnc2)no1` (configuration not stated): the cytotoxicity at 70.5 h amounted to 19.3%. In the case of `CC(Sc1nnc(C2CC2)n1CC(N)=O)c1ccc(F)c(Cl)c1` (configuration not stated), the cytotoxicity at 70.5 h is -6.61%.

As to `Cc1nc(CC2CCN(Cc3ccc(CCC(C)(C)O)cc3)CC2)no1`, the cytotoxicity at 70.5 h worked out at 13.1%.

`Cc1nc(NCc2ccc(F)cc2)cc(C(=O)N2CCOCC2)n1`: the cytotoxicity at 70.5 h is -3.46%.

`Cc1nnc(C2Cc3ccccc3CN2Cc2c(C)noc2C)o1` (configuration not stated): the cytotoxicity at 70.5 h was -1.11%. On to `CCCn1ncc(C2CC(=O)NCc3nc4sc(C)cn4c32)c1C` (configuration not stated), for which the cytotoxicity at 70.5 h was -3.1%. Take `Cn1cc(N2CC3(CCN(C(=O)c4cccn4C)CC3)OCC2=O)cn1`: the cytotoxicity at 70.5 h was -12.8%.

For `Fc1ccc(C2(NCc3noc(C4CC4)n3)CCC2)cc1`, the cytotoxicity at 70.5 h came to 8.34%. Take `CN(Cc1ccsc1)C(=O)c1nc(N2CCCCC2)ncc1Cl`: the cytotoxicity at 70.5 h was -14.3%. Turning to `CCc1cc(CN(C)C(=O)CN2CC(c3ccccc3)CC2=O)on1` (configuration not stated), the cytotoxicity at 70.5 h is 3.32%. Take `CS(=O)(=O)NCC1CCCCN1Cc1cccc(C#N)c1` (configuration not stated): the cytotoxicity at 70.5 h is -1.33%.

As to `COc1ccc(CNC(=O)C(NC(=O)Cc2ccccc2)C(C)C)cn1` (configuration not stated), the cytotoxicity at 70.5 h stood at 30.6%. Under `CNC(=O)c1sc2ncccc2c1C1CCN(C(=O)CCOC)C1` (configuration not stated) stands -8.16%; under `c1ccc(-c2nc(CN3CCc4c(ncn4C4CC4)C3)cs2)cc1`, 5.22%. The value for `CCN(C(=O)CN1CCC(c2cc3ccccc3[nH]2)CC1)C1CC1` was 4.18%; that for `CC(NC(=O)NCCC1=CCCCC1)c1nncn1C` (configuration not stated) was 35.8%.

As to `CNc1cncc(C2CCCN2C(=O)c2ccc3oc(C)cc3c2)n1` (configuration not stated), the cytotoxicity at 70.5 h was -8.56%. As to `Cc1ccc(C(=O)N2CCC3(CC2)COC(COc2ccccn2)C3)o1` (configuration not stated), the cytotoxicity at 70.5 h is -4.24%. Under `CC(C)OC(=O)N1C[C@H]2CC[C@@H]1CN(Cc1cccnc1)C2` stands -3.17%. Consider `Cc1nc[nH]c1C(=O)NCc1cccnc1N(C)C1CCCCC1`, for which the cytotoxicity at 70.5 h stood at 4.83%.

For `O=C(c1cccnc1)N1CCOC(Cc2ccccc2Cl)C1` (configuration not stated), the cytotoxicity at 70.5 h is 0.0235%.

As for `CNC(=O)C1CCC2(CCNCC2)C1` (configuration not stated), the cytotoxicity at 70.5 h is -3.71%.

Consider `Cc1n[nH]c(C)c1CCC(=O)NCC1CCOc2ccccc2C1` (configuration not stated), for which the cytotoxicity at 70.5 h was determined as 12.2%.

Consider `OCc1nnn2c1CN(Cc1cccnc1)CCC2`, for which the cytotoxicity at 70.5 h is -115%. Regarding `C[C@@H]1CN(Cc2c[nH]c(CC3CCCC3)n2)CC[C@]1(C)O`, the cytotoxicity at 70.5 h is -9.37%.

Take `Cc1cnc(CNC(=O)NCc2cccnc2N(C)C)s1`: the cytotoxicity at 70.5 h was -17.2%. Under `Cc1ccc(NC(=O)c2cccc(OCc3nnnn3C)c2)nc1` stands -9.18%. Under `Cn1ccc(C(=O)N2CCC(Cc3ccc4ncccc4c3)CC2)n1` stands 14.8%; under `Cc1cccc(CN2CCC3(CCCN(C(=O)CN(C)C)C3)C2=O)n1` (configuration not stated), 2.41%. As to `Cc1nonc1CN(C)c1nc(-c2cccnc2)nc2c1CCNC2`, the cytotoxicity at 70.5 h worked out at 0.678%.

Take `COC(=O)CC(c1cccs1)c1oc(C)cc(=O)c1O` (configuration not stated): the cytotoxicity at 70.5 h is -7.87%. `COCc1nc(C(=O)N2CCCC2c2cccc(C)c2)cs1` (configuration not stated): the cytotoxicity at 70.5 h is -8.14%.

For `CN(CCc1cn[nH]c1)C(=O)C1CC(=O)N(Cc2cccnc2)C1` (configuration not stated), the cytotoxicity at 70.5 h is 34.9%. In the case of `CCN1CCCCC1C(=O)N1CCN(C(=O)OC)CC1` (configuration not stated), the cytotoxicity at 70.5 h was -5.22%.
